Reference: patent EP4775582A1, “MACROCYCLIC COMPOUND AND ANTIBODY-DRUG CONJUGATE THEREOF” (Genfleet Therapeutics (Shanghai) Inc., priority 2023, dated 2025)
Values after ≈ are worked out from the molar mass of the structure shown. Like-named read-outs stand apart in the source and are kept apart here.

How the values were obtained:
H441 p-ERK = assay: Cell p-ERK assay (HTRF), NCI-H441 cells; type: cell-based, human; details: Homo sapiens; NCI-H441 cells (KRAS G12V), 3 h incubation
Procedure, shortened: (§1)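 AsPC-1 (10000/well) or NCI-H441 (20000/well) cells were seeded overnight and then exposed to compound for 3 h at 37 °C. Lysates were probed for ERK phospho-T202/Y204 by HTRF with a 4-hour antibody incubation. IC50 values came from four-parameter fits of inhibition against log concentration.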

AsPC-1 p-ERK = assay: Cell p-ERK assay (HTRF), AsPC-1 cells; type: cell-based, human; details: Homo sapiens
Procedure, shortened: as §1

NCI-H441 cells = assay: 3D cell proliferation assay (CellTiter Glo-3D), NCI-H441; type: cell-based, human; details: Homo sapiens, 120 h, NCI-H441 cells (KRAS G12V), 2% FBS, 5 days, read-out: H441 AP IC50
Procedure, shortened: (§2)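 Cells seeded at 800 per well (AsPC-1, NCI-H441) in 2% FBS medium and incubated overnight at 37 °C, 5% CO2. Compounds added next day from 10× stock, then 5 days' further culture. Viability read by CellTiter-Glo luminescence; IC50 from four-parameter fit of inhibition versus log concentration.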

AsPC-1 cells = assay: 3D cell proliferation assay (CellTiter Glo-3D), AsPC-1; type: cell-based, human; details: Homo sapiens, ASPC1, 120 h; AsPC-1 cells (KRAS G12D), 3D, 2% FBS, 5 days; read-out: AsPC-1 AP IC50
Procedure, shortened: as §2

[1] = Solubility experiment (HPLC, external standard); type: physicochemical; details: 37 °C, 24 h; for solubility at 24 h: ph 7.4 medium, pH 7.4, pH 7.4 medium; for Solubility at pH 7.4 (µg/mL): pH 7.4 medium
Protocol: This experiment was intended to determine the solubility of the compounds in media at different pH values. The materials used in the experiment included: a pH 1.2 medium, a pH 4.5 medium, a pH 7.4 medium, and a diluent (acetonitrile/water = 50/50). 1. The preparation methods for media are as follows:
One centrifuge tube (containing about 2 mg of the test sample) was taken, 1 mL of DMSO was added to completely dissolve the test sample, and the mixture was marked as stock-1. 0.2 mL of stock-1 was transferred into a 10 mL volumetric flask, and then the 50:50 (acetonitrile/water) solution was added to bring the volume to the mark, so as to give a control solution.
Additionally, centrifuge tubes each containing about 1 mg of the test sample were taken, 1 mL of the corresponding medium solution was then added, and the tubes were shaken on a 37 °C water bath shaker for 24 h. After centrifugation for 3 times (centrifugation time: 10 min, rotation speed: 12000 rpm), 0.2 mL of the supernatants were taken, 0.8 mL of the diluent (acetonitrile/water = 50/50) was added to each tube, and the mixtures were vortexed and mixed well to give solubility samples.
The solubility samples described above and the control solution were sequentially analyzed by high performance liquid chromatography. The chromatographic conditions are as follows:
The actual concentration of the compound in each solubility sample was calculated according to an external standard method. Concentration (μg/mL) = (ASample × CControl × DSample)/(AControl)∗1000; [formula] Asample: the peak area of the target peak in the sample solution; Ccontrol: the concentration (mg/mL) of the control solution; Dsample: the dilution factor of the sample solution; Acontrol: the peak area of the target peak in the control solution.

[2] = ASPC1, AsPC-1 cells (KRAS G12D), 3 h incubation, read-out: AsPC-1 p-ERK IC50

SMILES	IC50 (H441 p-ERK) [nM]	IC50 (AsPC-1 p-ERK; [2]) [nM]	IC50 (NCI-H441 cells) [nM]	IC50 (AsPC-1 cells) [nM]	solubility at 24 h [1] [µg/mL]	other results
CCn1c(-c2cc(OCCN3CCC(C#N)(CN)CC3)c[n+]([O-])c2[C@H](C)OC)c2c3cc(ccc31)-c1csc(n1)C[C@H](NC(=O)[C@H]1[C@H](C)[C@@H]1C)C(=O)N1CCC[C@H](N1)C(=O)OCC(C)(C)C2 (atropisomer, axis not shown; (Ra)) [Compound Z73, 5-(2-(4-(aminomethyl)-4-cyanopiperidin-1-yl)ethoxy)-(Ra)-3-((6^3S,4S,Z)-4-((1r,2R,3S)-2,3-dimethylcyclopropane-1-carboxamido)-1^1-ethyl-10,10-dimethyl-5,7-dioxo-6^1,6^2,6^3,6^4,6^5,6^6-hexahydro-1^1H-8-oxa-2(4,2)-thiazola-1(5,3)-indola-6(1,3)-pyridazinacycloundecaphane-1^2-yl)-2-((S)-1-methoxyethyl)pyridine 1-oxide]	3.84	3.19	2.48	2.5	96.6 (≈ 104 µM)	–
CCn1c(-c2cc(C#CCN3CCC(C#N)(CO)CC3)c[n+]([O-])c2[C@H](C)OC)c2c3cc(ccc31)-c1csc(n1)C[C@H](NC(=O)[C@H]1[C@H](C)[C@@H]1C)C(=O)N1CCC[C@H](N1)C(=O)OCC(C)(C)C2 (atropisomer, axis not shown; (Ra)) [Compound Z45-1, 5-(3-(4-cyano-4-(hydroxymethyl)piperidin-1-yl)prop-1-yn-1-yl)-(Ra)-3-((6^3S,4S,Z)-4-((1r,2R,3S)-2,3-dimethylcyclopropane-1-carboxamido)-1^1-ethyl-10,10-dimethyl-5,7-dioxo-6^1,6^2,6^3,6^4,6^5,6^6-hexahydro-1^1H-8-oxa-2(4,2)-thiazola-1(5,3)-indola-6(1,3)-pyridazinacycloundecaphane-1^2-yl)-2-((S)-1-methoxyethyl)pyridine 1-oxide]	0.6	0.28	0.53	0.12	5.01 (≈ 5.45 µM)	–
COCCn1c(-c2cc(C#CCN3CCN(C(=O)CO)CC3)cnc2[C@H](C)OC)c2c3cc(ccc31)-c1csc(n1)C[C@H](NC(=O)[C@H]1[C@@H]3COC[C@@H]31)C(=O)N1CCC[C@H](N1)C(=O)OCC(C)(C)C2 (atropisomer, axis not shown; (Sa)) [Compound Z31-2, (1R,5S,6r)-N-((6^3S,4S,Z)-(Sa)-1^2-(5-(3-(4-(2-hydroxyacetyl)piperazin-1-yl)prop-1-yn-1-yl)-2-((S)-1-methoxyethyl)pyridin-3-yl)-1^1-(methoxyethyl)-10,10-dimethyl-5,7-dioxo-6^1,6^2,6^3,6^4,6^5,6^6-hexahydro-1^1H-8-oxa-2(4,2)-thiazola-1(5,3)-indola-6(1,3)-pyridazinacycloundecaphane-4-yl)-3-oxabicyclo[3.1.0]hexane-6-carboxamide]	–	–	–	–	22 (≈ 23.1 µM)	–
CCn1c(-c2cc(C#CCN3CCC(C(=O)NCCO)CC3)cnc2[C@H](C)OC)c2c3cc(ccc31)-c1csc(n1)C[C@H](NC(=O)[C@H]1[C@@H]3COC[C@@H]31)C(=O)N1CCC[C@H](N1)C(=O)OCC(C)(C)C2 (atropisomer, axis not shown; (Ra)) [Compound Z21, 1-(3-(5-((6^3S,4S,Z)-4-((1R,5S,6r)-3-oxabicyclo[3.1.0]hexane-6-carboxamido)-1^1-ethyl-10,10-dimethyl-5,7-dioxo-6^1,6^2,6^3,6^4,6^5,6^6-hexahydro-1^1H-8-oxa-2(4,2)-thiazola-1(5,3)-indola-6(1,3)-pyridazinacycloundecaphane-1^2-yl)-6-(Ra)-((S)-1-methoxyethyl)pyridin-3-yl)prop-2-yn-1-yl)-N-(2-hydroxyethyl)piperidine-4-carboxamide]	0.51	1.68	0.41	1.11	9.71 (≈ 10.2 µM)	–
CCn1c(-c2cc(C#CCN3CCS(=O)(=O)CC3)cnc2[C@H](C)NC)c2c3cc(ccc31)-c1csc(n1)C[C@H](NC(=O)[C@H]1[C@H](C)[C@@H]1C)C(=O)N1CCC[C@H](N1)C(=O)OCC(C)(C)C2 (atropisomer, axis not shown; (Sa)) [Compound Z66-1, (1r,2R,3S)-N-((6^3S,4S,Z)-(Sa)-1^2-(5-(3-(1,1-dioxidothiomorpholino)prop-1-yn-1-yl)-2-((S)-1-(methylamino)ethyl)pyridin-3-yl)-11-ethyl-10,10-dimethyl-5,7-dioxo-6^1,6^2,6^3,6^4,6^5,6^6-hexahydro-1^1H-8-oxa-2(4,2)-thiazola-1(5,3)-indola-6(1,3)-pyridazinacycloundecaphane-4-yl)-2,3-dimethylcyclopropane-1-carboxamide]	–	–	–	–	–	Solubility at pH 7.4 (µg/mL) [1]: 158.5 µg/mL
COCCn1c(-c2cc(C#CCN3CCN(C(=O)CO)CC3)c[n+]([O-])c2[C@H](C)OC)c2c3cc(ccc31)-c1csc(n1)C[C@H](NC(=O)[C@H]1[C@@H]3COC[C@@H]31)C(=O)N1CCC[C@H](N1)C(=O)OCC(C)(C)C2 (atropisomer, axis not shown; (Sa)) [Compound Z38-2, (Sa)-3-((6^3S,4S,Z)-4-((1R,5S,6r)-3-oxabicyclo[3.1.0]hexane-6-carboxamido)-1^1-(2-methoxyethyl)-10,10-dimethyl-5,7-dioxo-6^1,6^2,6^3,6^4,6^5,6^6-hexahydro-11H-8-oxa-2(4,2)-thiazola-1(5,3)-indola-6(1,3)-pyridazinacycloundecaphane-1^2-yl)-5-(3-(4-(2-hydroxyacetyl)piperazin-1-yl)prop-1-yn-1-yl)-2-((S)-1-methoxyethyl)pyridine-1-oxide]	–	–	–	–	176 (≈ 182 µM)	–
CCn1c(-c2cc(C#CCN3CCC(C#N)(CO)CC3)c[n+]([O-])c2[C@H](C)OC)c2c3cc(ccc31)-c1csc(n1)C[C@H](NC(=O)[C@H]1[C@H](C)[C@@H]1C)C(=O)N1CCC[C@H](N1)C(=O)OCC(C)(C)C2 (atropisomer, axis not shown; (Sa)) [Compound Z45-2, 5-(3-(4-cyano-4-(hydroxymethyl)piperidin-1-yl)prop-1-yn-1-yl)-(Sa)-3-((6^3S,4S,Z)-4-((1r,2R,3S)-2,3-dimethylcyclopropane-1-carboxamido)-1^1-ethyl-10,10-dimethyl-5,7-dioxo-6^1,6^2,6^3,6^4,6^5,6^6-hexahydro-1^1H-8-oxa-2(4,2)-thiazola-1(5,3)-indola-6(1,3)-pyridazinacycloundecaphane-1^2-yl)-2-((S)-1-methoxyethyl)pyridine 1-oxide]	–	–	–	–	–	Solubility at pH 7.4 (µg/mL) ([1]; 1440 min): 8.42 µg/mL
CCn1c(-c2cc(C#CCN3CCS(=O)(=O)CC3)cnc2[C@H](C)OC)c2c3cc(ccc31)-c1csc(n1)C[C@H](NC(=O)[C@@H](N)C1CCC1)C(=O)N1CCC[C@H](N1)C(=O)OCC(C)(C)C2 (atropisomer, axis not shown; (Ra)) [Compound Z16, (2S)-2-amino-2-cyclobutyl-N-((6^3S,4S,Z)-(Ra)-1^2-(5-(3-(1,1-dioxidothiomorpholino)prop-1-yn-1-yl)-2-((S)-1-methoxyethyl)pyridin-3-yl)-1^1-ethyl-10,10-dimethyl-5,7-dioxo-6^1,6^2,6^3,6^4,6^5,6^6-hexahydro-1^1H-8-oxa-2(4,2)-thiazola-1(5,3)-indola-6(1,3)-pyridazinacycloundecaphane-4-yl)acetamide]	1.14	–	–	–	15 (≈ 16.4 µM)	IC50 (AsPC-1 p-ERK; ASPC1, 3 h, read-out: AsPC-1 p-ERK IC50(nM)): 1.67 nM
COCCn1c(-c2cc(C#CCN3CCN(C(=O)CO)CC3)cnc2[C@H](C)OC)c2c3cc(ccc31)-c1csc(n1)C[C@H](NC(=O)[C@H]1[C@H](C)[C@@H]1C)C(=O)N1CCC[C@H](N1)C(=O)OCC(C)(C)C2 (atropisomer, axis not shown; (Sa)) [Compound Z63-2, (2R,3S)-N-((6^3S,4S,Z)-1^2-(5-(3-(4-(2-hydroxyacetyl)piperazin-1-yl)prop-1-yn-1-yl)-(Sa)-2-((S)-1-methoxyethyl)pyridin-3-yl)-1^1-(2-methoxyethyl)-10,10-dimethyl-5,7-dioxo-6^1,6^2,6^3,6^4,6^5,6^6-hexahydro-1^1H-8-oxa-2(4,2)-thiazola-1(5,3)-indola-6(1,3)-pyridazinacycloundecaphane-4-yl)-2,3-dimethylcyclopropane-1-carboxamide]	–	–	–	–	–	Solubility at pH 7.4 (µg/mL) ([1]; 1440 min): 15.37 µg/mL
